Assay results taken from publication PMC9933440 (Crystal Growth & Design, 2022).

Key:
[1] = pKa (base) – pKa (acid)
[2] = ref 77 (4AP), ref 78 (4DMP), ref 79 (PPZ); cited from earlier work
physchem = details: pH 6.5
Procedure: Solubility experiments were conducted in sodium phosphate buffer solutions at pH 6.5 and 37 °C to simulate intestinal physiological conditions. For each experiment, an excess crystalline solid was sieved through a 300 μm sieve and introduced into a flask with a screw top containing 100 mL of the medium. The solution was stirred at 200 rpm using a magnetic stir bar for 48 h to reach the equilibrium state. […] After each sampling, the volume of the liquid removed from the suspension was not compensated. The withdrawn suspension was filtered through 0.2 μm nylon filters and diluted prior to high-performance liquid chromatography (HPLC) analysis. The solubility experiment for each crystal form was repeated in triplicate. After the last sample collection, the remaining solid material in the suspension was filtered, dried, and characterized by IR and PXRD.
A C18 HPLC column (YMC-Pack ODS-A column, 4.6 mm × 250 mm, 5 μm) with a flow rate of 1 mL min^–1 was employed, and the column temperature was set at 25 °C. The binary mobile phase consisted of acetonitrile and sodium phosphate buffer (pH 6.5) in a volume ratio of 25:75. The samples were diluted appropriately with the mobile phase, and the absorbance was measured at 347 nm.

[3] = pH <3; cited from earlier work

Row | SMILES | ΔpKa for MEL ([1]; hydroxyl group of MEL) | ΔpKa for PRM ([1]; hydroxyl group of PRM) | pKa in water (salt former) [2] | time to highest solubility / maximum dissolved concentration / equilibrium (physchem) [min] | degradation at lower pH [3]
1 | Nc1ccncc1 [4AP, 4-aminopyridine] | 8.08 | 7.31 | 9.17[77] |  | 
2 | Cc1cnc(NC(=O)C2=C(O)c3ccccc3S(=O)(=O)N2C)s1 [MEL, meloxicam] |  |  |  | 90 | significant degradation
